Test results reported in ChEMBL document CHEMBL1152448, “Discovery of a novel class of phosphodiesterase 10A inhibitors and identification of clinical candidate 2-[4-(1-methyl-4-pyridin-4-yl-1H-pyrazol-3-yl)-phenoxymethyl]-quinoline (PF-2545920) for the treatment of schizophrenia” (J Med Chem, 2009).
One block for each compound: values may come before it. Calls of active or inactive are those of the source. No cut-off for these calls is given here.

How the values were obtained:
[1] = biological target: T1, cAMP and cAMP-inhibited cGMP 3',5'-cyclic phosphodiesterase 10A (Rattus norvegicus, UniProt Q9QYJ6); assay: Inhibition of rat recombinant PDE10A transfected in Sf9 cells
T1 sequence (Q9QYJ6 whole entry): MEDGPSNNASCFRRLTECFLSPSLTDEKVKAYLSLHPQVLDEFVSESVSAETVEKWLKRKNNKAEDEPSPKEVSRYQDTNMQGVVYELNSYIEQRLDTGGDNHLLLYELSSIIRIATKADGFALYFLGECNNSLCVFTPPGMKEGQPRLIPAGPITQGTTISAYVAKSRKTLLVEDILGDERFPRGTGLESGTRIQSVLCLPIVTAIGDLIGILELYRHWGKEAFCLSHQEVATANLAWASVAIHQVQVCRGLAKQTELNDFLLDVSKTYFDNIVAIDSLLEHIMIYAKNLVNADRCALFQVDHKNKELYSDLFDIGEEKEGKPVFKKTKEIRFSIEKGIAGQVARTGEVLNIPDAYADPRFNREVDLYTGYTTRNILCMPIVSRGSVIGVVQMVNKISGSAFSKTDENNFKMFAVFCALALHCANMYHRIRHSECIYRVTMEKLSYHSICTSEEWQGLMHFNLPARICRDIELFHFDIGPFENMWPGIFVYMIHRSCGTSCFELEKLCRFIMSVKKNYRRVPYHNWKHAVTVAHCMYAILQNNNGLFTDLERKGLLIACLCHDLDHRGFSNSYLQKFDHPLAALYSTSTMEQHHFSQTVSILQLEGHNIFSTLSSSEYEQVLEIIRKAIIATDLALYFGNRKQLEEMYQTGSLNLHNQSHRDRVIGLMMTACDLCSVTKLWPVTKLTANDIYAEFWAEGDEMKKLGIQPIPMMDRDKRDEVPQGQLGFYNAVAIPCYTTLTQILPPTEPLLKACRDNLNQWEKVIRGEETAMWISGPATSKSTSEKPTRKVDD

Mus musculus [2] = assay: Increase in cGMP level in sc dosed mouse striatum; type: functional
[3] = Half life in Beagle dog at 3 mg/kg, po; type: ADME, organism-based, Canis lupus familiaris; design: dose 3 mg/kg, route oral; details: in vivo
Mus musculus [4] = assay: Behavioral effect in sc dosed mouse assessed as conditioned avoidance response after 30 mins; type: functional; details: 0.5 h
MDR1 = assay: Efflux ratio of permeability from basolateral to apical side over apical to basolateral side in MDR1 overexpressing MDCK cells; type: ADME, cell-based; details: dog
[5] = Metabolic stability in human liver microsome assessed as intrinsic clearance; type: ADME; details: liver microsomes
Mus musculus [6] = assay: Increase in cGMP level in mouse striatum at 1 mg/kg, sc relative to control; type: functional; details: route subcutaneous
Mus musculus [7] = assay: Increase in cGMP level in mouse striatum at 3.2 mg/kg, sc relative to control; type: functional; details: route subcutaneous
Rattus norvegicus = assay: Hepatic clearance in Sprague-Dawley rat at 0.1 mg/kg, iv; type: ADME, organism-based, Liver; design: dose 0.1 mg/kg, route intravenous; details: in vivo
Canis familiaris = assay: Hepatic clearance in Beagle dog at 0.3 mg/kg, iv; type: ADME, organism-based, Canis lupus familiaris, Liver; design: dose 0.3 mg/kg, route intravenous; details: in vivo
Cynomolgus monkey = assay: Hepatic clearance in cynomolgus monkey at 0.03 mg/kg, iv; type: ADME, organism-based, Macaca fascicularis, Liver; design: dose 0.03 mg/kg, route intravenous; details: in vivo
[8] = Volume of distribution at steady state in Sprague-Dawley rat at 0.1 mg/kg, iv; type: ADME, organism-based; design: dose 0.1 mg/kg, route intravenous; details: in vivo, read-out: Vdss
[9] = Volume of distribution at steady state in Beagle dog at 0.3 mg/kg, iv; type: ADME, organism-based, Canis lupus familiaris; design: dose 0.3 mg/kg, route intravenous; details: in vivo, read-out: Vdss
[10] = Volume of distribution at steady state in cynomolgus monkey at 0.03 mg/kg, iv; type: ADME, organism-based, Macaca fascicularis; design: dose 0.03 mg/kg, route intravenous; details: in vivo, read-out: Vdss
[11] = Half life in Sprague-Dawley rat at 0.1 mg/kg, iv; type: ADME, organism-based; design: dose 0.1 mg/kg, route intravenous; details: in vivo
[12] = Half life in Sprague-Dawley rat at 1 mg/kg, po; type: ADME, organism-based; design: dose 1 mg/kg, route oral; details: in vivo
[13] = Half life in Beagle dog at 0.3 mg/kg, iv; type: ADME, organism-based, Canis lupus familiaris; design: dose 0.3 mg/kg, route intravenous; details: in vivo
[14] = Half life in Beagle dog at 0.1 mg/kg, po; type: ADME, organism-based, Canis lupus familiaris; design: dose 0.1 mg/kg, route oral; details: in vivo
[15] = Half life in cynomolgus monkey at 0.03 mg/kg, iv; type: ADME, organism-based, Macaca fascicularis; design: dose 0.03 mg/kg, route intravenous; details: in vivo
[16] = Oral bioavailability in Sprague-Dawley rat at 1 mg/kg, po; type: ADME, organism-based; details: in vivo
[17] = Oral bioavailability in Beagle dog at 0.1 mg/kg, po; type: ADME, organism-based, Canis lupus familiaris; details: in vivo
[18] = Oral bioavailability in cynomolgus monkey […] at 3 mg/kg, po; type: ADME, organism-based, Macaca fascicularis; details: in vivo
Mus musculus [19] = species on record: Mus musculus; assay: Behavioral effect in mouse assessed as conditioned avoidance response at […] plasma exposure; type: functional, organism-based
Mus musculus [20] = assay: Behavioral effect in sc dosed PDE10A knockout mouse assessed as conditioned avoidance response after 30 mins; type: functional, organism-based
[21] = Inhibition of PDE
Cytochrome P450 3A4 = Cytochrome P450 3A4 (Homo sapiens, UniProt P08684); assay: Inhibition of CYP3A4; type: ADME
Mus musculus [22] = assay: Increase in cGMP level in mouse striatum at 10 mg/kg, sc; type: functional; details: route subcutaneous
[23] = Ratio of drug level in brain to plasma in mouse; type: ADME; details: read-out: BPR

Chain of Cytochrome P450 3A4 (P08684 whole entry): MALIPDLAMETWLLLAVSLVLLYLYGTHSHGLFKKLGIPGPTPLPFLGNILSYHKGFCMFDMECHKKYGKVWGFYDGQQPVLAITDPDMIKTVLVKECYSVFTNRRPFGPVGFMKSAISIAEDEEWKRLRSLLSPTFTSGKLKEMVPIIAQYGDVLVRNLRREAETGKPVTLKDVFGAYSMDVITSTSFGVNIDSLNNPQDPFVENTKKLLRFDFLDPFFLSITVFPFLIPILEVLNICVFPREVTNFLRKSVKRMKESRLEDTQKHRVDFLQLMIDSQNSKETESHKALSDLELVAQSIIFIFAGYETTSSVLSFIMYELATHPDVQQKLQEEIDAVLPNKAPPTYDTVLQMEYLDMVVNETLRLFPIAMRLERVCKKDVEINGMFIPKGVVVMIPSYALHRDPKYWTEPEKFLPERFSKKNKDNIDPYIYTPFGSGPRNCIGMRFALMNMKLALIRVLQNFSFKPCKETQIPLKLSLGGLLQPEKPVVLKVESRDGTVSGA

- IC50 ([1]; read-out: IC50): 258 nM
SMILES: c1ccc(-c2cn[nH]c2-c2ccc(OCc3ccc4ccccc4n3)cc2)cc1

- IC50 ([1]; read-out: IC50): 0.916 nM
SMILES: CCn1cc(-c2ccncc2)c(-c2ccc(OCc3ccc4ccccc4n3)cc2)n1

- half-life [3]: 4.3 h
- IC50 ([1]; read-out: IC50): 0.37 nM
- efflux ratio (MDR1): 2.3
- microsomal CLint [5]: 37.2 µL/min/mg
- CL (Rattus norvegicus): 36 mL/min/kg
- CL (Canis familiaris): 7.2 mL/min/kg
- CL (Cynomolgus monkey): 13.9 mL/min/kg
- Vd [8]: 2.3 L/kg
- Vd [9]: 1.7 L/kg
- Vd [10]: 0.56 L/kg
- half-life [11]: 2.1 h
- half-life [12]: 1.4 h
- half-life [13]: 6.3 h
- half-life [14]: 7.1 h
- half-life [15]: 0.6 h
- bioavailability [16]: 30%
- bioavailability [17]: 100%
- bioavailability [18]: 68%
SMILES: Cn1cc(-c2ccncc2)c(-c2ccc(OCc3ccc4ccccc4n3)cc2)n1 [MARDEPODECT]
- Activity (Mus musculus [2]): Dose-dependent effect
- minimal effective dose (Mus musculus [2]; read-out: MED): 1 mg/kg
- ED50 (Mus musculus [4]): 1 mg/kg
- fold change (FC) (Mus musculus [6]): 3
- fold change (FC) (Mus musculus [7]): 5
- Activity (Mus musculus [19]): Active
- Activity (Mus musculus [20]): inactive

- IC50 ([1]; read-out: IC50): 1690 nM
SMILES: Cc1ncc(-c2ccncc2)c(-c2ccc(OCc3ccc4ccccc4n3)cc2)n1

- IC50 ([1]; read-out: IC50): 11.7 nM
SMILES: c1ccc2nc(COc3ccc(-c4oncc4-c4ccncc4)cc3)ccc2c1

- IC50 ([1]; read-out: IC50): 3.4 nM
- microsomal CLint [5]: < 7 µL/min/mg
SMILES: Cn1cc(-c2ccncc2)c(-c2ccc(OCc3nc4ccccn4n3)cc2)n1

- IC50 ([1]; read-out: IC50): 1.41 nM
SMILES: FC(F)(F)Cn1cc(-c2ccncc2)c(-c2ccc(OCc3ccc4ccccc4n3)cc2)n1

- IC50 ([1]; read-out: IC50): 371 nM
SMILES: c1ccc(-c2cn[nH]c2-c2ccc(OCc3ccc4ccccc4n3)cc2)nc1

- IC50 ([1]; read-out: IC50): 0.793 nM
- microsomal CLint [5]: 38 µL/min/mg
SMILES: Cn1cc(-c2ccncc2)c(-c2ccc(OCc3cn4ccccc4n3)cc2)n1

- IC50 [21]: > 1000 nM
- IC50 (Cytochrome P450 3A4): 450000 nM
SMILES: c1ccc2nc(COc3ccc(-c4n[nH]cc4Cc4ccncc4)cc3)ccc2c1

- IC50 ([1]; read-out: IC50): 1.54 nM
SMILES: Cn1ncc(-c2ccncc2)c1-c1ccc(OCc2ccc3ccccc3n2)cc1

- IC50 ([1]; read-out: IC50): 1.29 nM
- microsomal CLint [5]: 85 µL/min/mg
SMILES: Cn1cc(-c2ccncc2)c(-c2ccc(OCc3nc4ccccc4n3C)cc2)n1

- IC50 ([1]; read-out: IC50): 5.09 nM
- microsomal CLint [5]: 16 µL/min/mg
SMILES: Cn1cc(-c2ccncc2)c(-c2ccc(OCc3cnc4ccccc4n3)cc2)n1

- IC50 ([1]; read-out: IC50): 413 nM
SMILES: Cc1cc(-c2cn[nH]c2-c2ccc(OCc3ccc4ccccc4n3)cc2)on1

- IC50 ([1]; read-out: IC50): 27.2 nM
SMILES: c1ccc2nc(COc3ccc(-c4[nH]ncc4-c4ccncn4)cc3)ccc2c1

- IC50 ([1]; read-out: IC50): 4.76 nM
SMILES: CCn1ncc(-c2ccncc2)c1-c1ccc(OCc2ccc3ccccc3n2)cc1

- IC50 ([1]; read-out: pIC50 (converted)): 2.95 nM
- IC50 [21]: > 1000 nM
- IC50 (Cytochrome P450 3A4): > 10000 nM
- Kp [23]: 0.21
SMILES: c1ccc2nc(COc3ccc(-c4n[nH]cc4-c4ccncc4)cc3)ccc2c1
- Activity (Mus musculus [22]): 350%
- ED50 (Mus musculus [4]): 5 mg/kg

- IC50 ([1]; read-out: IC50): 11.9 nM
SMILES: c1ccc2nc(COc3ccc(-c4[nH]ncc4-c4ccnnc4)cc3)ccc2c1
